Experimental data taken from patent US20260092086A1, “ANTIMICROBIAL LASSO PEPTIDES” (priority 2022, published 2026).
Converted amounts (≈) assume the structure as drawn. “Also recorded” adds a separate entry of the source. Read-outs that look alike come from different tables or passages of the source. Where a SMILES comes first, the peptide text is derived from it.

Legend:
[1] = test system: Klebsiella aerogenes ATCC 13048; experiment: Spot-on-lawn assay in M63 agar; type: cell-based; details: purified cloacaenodin in water
Method: (§1) Cloacaenodin was evaluated against several common laboratory strains as well as commercially acquired strains using a spot-on-lawn assay.^45 Strains were streaked out onto LB agar plates and incubated overnight at their recommended temperatures. A single colony was then used to inoculate an overnight culture in 5 mL of LB broth. After shaking at 250 rpm at the recommended temperature for each strain, 50 μL of the overnight culture was used to inoculate 5 mL of LB broth (volume ratio 1:100). These cultures were grown for a few hours until they reached the exponential phase (OD600˜0.4-0.6) before being added to 10 mL of soft M63 agar at a final cell density of 10^7 CFUs/mL, or 10^8 CFUs total in 10 mL. The M63 soft agar was composed of 2 g/L of (NH4)2SO4 (EMD MilliporeSigma), 13.6 g/L of KH2PO4 (Fisher), 40 mg/L of each of the 20 common amino acids, 0.2% glucose (Sigma), 0.00005% w/v thiamine hydrochloride (Sigma), and 0.65% w/v bacteriological-grade agar (Apex Bioresearch). […] Upon solidification, 10 μL of purified cloacaenodin in water at two-fold dilutions were then spotted onto the agar and allowed to dry. The plates were incubated overnight at the strains' recommended temperatures and analyzed the next morning for activity. The MIC is defined as the last dilution where a spot was visible.

[2] = test system: Enterobacter nimipressuralis DSM 18955; experiment: Spot-on-lawn assay in M63 agar; type: cell-based
Method: as §1

[3] = test system: Salmonella enterica serovar Newport; experiment: Spot-on-lawn assay in M63 agar; type: cell-based; details: purified cloacaenodin in water
Method: as §1

[4] = test system: Enterobacter hormaechei ATCC 700323; experiment: Spot-on-lawn assay in M63 agar; type: cell-based; details: purified cloacaenodin in water
Method: as §1

[5] = test system: Enterobacter kobei BAA-260; experiment: Spot-on-lawn assay in M63 agar; type: cell-based; details: purified cloacaenodin in water
Method: as §1

Enterobacter amnigenus = type: cell-based
Method: (§2) For liquid inhibition assays, 5 mL LB broth was inoculated with 40-50 μL of an overnight culture of E. cloacae or E. amnigenus. […] The plate was shaken at 30° C. at 250 rpm for E. cloacae, and 37° C. at 250 rpm for E. amnigenus. The OD600 was measured at 8-hour and 16-hour increments. The MIC is defined as the lowest concentration of cloacaenodin for which growth (as assessed by the OD600) was inhibited.

[6] = test system: Enterobacter cloacae ATCC 13047; type: cell-based
Method: as §2

α-chymotrypsin = biological target: T1, α-chymotrypsin (Bos taurus, UniProt P00766, DEL14-15/DEL147-148); experiment: Protease digestion, chymotrypsin; type: in vitro ADME, bovine; details: 50 μM peptide, 25° C., about 1 hour, LC-MS
T1 construct: purchased Sigma-Aldrich; host or cells: bovine pancreas
Method: α-chymotrypsin from bovine pancreas (Sigma-Aldrich) was first resuspended in 1 mM HCl, 2 mM CaCl2). The enzyme was added to 50 μM peptide samples at a final enzyme concentration of about 0.04 mg/mL in a buffer of 100 mM tris(hydroxymethyl)aminomethane (Tris), 10 mM CaCl2, pH 8. The reactions were then allowed to incubate at 25° C. for about 1 hour before quenching with 1% formic acid, and an aliquot was injected onto LC-MS for analysis.

[7] = test system: Escherichia coli XL-1 Blue; experiment: Intracellular toxicity: IPTG-induced expression from plasmid lacking cloD; type: cell-based; details: IPTG induction
Method: After characterizing the structure and proteolytic resistance of cloacaenodin, cloacaenodin's inhibition of bacterial growth was tested. As a preliminary test of antimicrobial activity, a version of the expression plasmid from which the cloD gene was removed was cloned, so that the lasso peptide could not be exported by the Escherichia coli upon isopropyl β-D-1-thiogalactopyranoside (IPTG)-induced expression.
Cloacaenodin variants were constructed using site-directed mutagenesis. Mutant precursor genes were amplified from the wild-type precursor in pAK2 using mutagenic primers. Following PCR amplification of the mutated precursor gene, the purified PCR product was digested and ligated into pAK2 with the EcoRI and HindIII restriction sites. For the pMP3 plasmid for deletion of the cloD gene, the D gene was first disrupted by digestion of pAK2 with BamHI and NcoI, which removed the entire cloD gene and the C-terminal portion of the cloC gene. The digested plasmid was then ligated with an insert that restored the C-terminal portion of the cloC gene. All mutants were sequence confirmed by Genewiz (now Azenta) before use.

Question: `CC[C@H](C)[C@@H]1NC(=O)[C@H](CCCNC(=N)N)NC(=O)[C@H](CC(=O)O)NC(=O)[C@H](C(C)C)NC(=O)[C@H](CO)NC(=O)[C@H](Cc2c[nH]cn2)NC(=O)CNC(=O)CC[C@@H](C(=O)N[C@@H](Cc2ccc(O)cc2)C(=O)N[C@@H](Cc2ccccc2)C(=O)NCC(=O)N2CCC[C@H]2C(=O)N2CCC[C@H]2C(=O)NCC(=O)N[C@@H](CC(C)C)C(=O)N2CCC[C@H]2C(=O)NCC(=O)N2CCC[C@H]2C(=O)N[C@H](C(=O)N[C@@H](CC(C)C)C(=O)N[C@@H](Cc2ccccc2)C(=O)N[C@@H](Cc2ccc(O)cc2)C(=O)N[C@@H](CO)C(=O)O)C(C)C)NC(=O)[C@@H]2CCCN2C1=O` [cloacaenodin] (HELM PEPTIDE1{G.H.S.V.D.R.I.P.E.Y.F.G.P.P.G.L.P.G.P.V.L.F.Y.S}$PEPTIDE1,PEPTIDE1,1:R1-9:R3$$$V2.0; C-terminus assumed) was tested. Which “antimicrobial activity (zones of inhibition)” value [1] did it give?
Answer: Its value is “no observed activity”.

Question: And the “strain susceptible to cloacaenodin” value ([2]; Lelliottia nimipressuralis DSM 18955)?
Answer: Its value is “* Lelliottia nimipressuralis”.

Question: And the “antimicrobial activity (zones of inhibition)” value ([2]; spot-on-lawn, M63 agar, purified cloacaenodin in water)?
Answer: Its value is “zones of inhibition in the low micromolar range”.

Question: What about the “antimicrobial activity (zones of inhibition)” value [3] of the same compound?
Answer: The value was “no observed activity”.

Question: What about the “antimicrobial activity (zones of inhibition)” value [4] of the same compound?
Answer: The value was “no observed activity”.

Question: And the “antimicrobial activity (zones of inhibition)” value [5]?
Answer: Its value is “no observed activity”.

Question: And the “MIC, broth microdilution assay in M63 media” value (Enterobacter amnigenus)?
Answer: The value was 0.23 µM (≈ 0.594 µg/mL).

Question: What about the “MIC in M63 media” value ([6]; ATCC 13047) of the same compound?
Answer: Its value is 0.94 µM (≈ 2.43 µg/mL).

Question: And the “MIC in M63 media” value ([6]; liquid, Enterobacter cloacae ATCC 13047)?
Answer: Its value is 0.94 µM (liquid) (≈ 2.43 µg/mL).

Question: What about the proteolysis by chymotrypsin (α-chymotrypsin; listed as Threaded cloacaenodin) of the same compound?
Answer: Its proteolysis by chymotrypsin is “resistant to chymotrypsin digestion”.

Question: What about the proteolysis by chymotrypsin (α-chymotrypsin; listed as threaded cloacaenodin) of the same compound?
Answer: The proteolysis by chymotrypsin was “remained resistant to proteolysis”.

Question: And the “intracellular toxicity (growth of E. coli on IPTG without CloD)” value [7]?
Answer: Its value is “colonies did not appear; also recorded: can no longer grow”.
